# Entries after “also recorded” stand apart in the source; their conditions may differ.
# Key:
# [1] = test system: myocardial infarction; assay: Intramyocardial TNFα followed by coronary occlusion: myocardial necrosis, apoptosis, mortality; format: in vivo, F344 rats
# Description: (§1) FIG. 5. Aging-associated alterations in TNFα cardioprotection. (A) Representative immunostaining for PDGF-B in rat hearts injected with TNFα or PBS vehicle 24 h prior to sacrifice. (B) Quantification of PDGF-B density in the injected hearts (n=3, each group). (C) Representative cardiac histology after coronary occlusion: Mason's trichrome staining for myocardial necrosis (14 day post-coronary occlusion) in 4- and 24-month old rat hears treated with PBS (4- and 24-month old, n=4 and 10, respectively) and TNFα (4-month old, n=4); and (D) tunnel staining for apoptosis (DAB) with hematoxylin counter stain (2 day post-coronary occlusion) in 24-month old hearts treated with TNFα (n=10; 80% mortality vs. PBS 0%; p<0.05). (E) Quantification of myocardial necrosis in rat hearts 14 day post-coronary occlusion.
# (§2) To examine the age-dependent effects of TNFα PDGF-B expression and protection from myocardial necrosis, sets of 4- and 24-month old F344 rats received intramyocardial injections of growth factor.
# [2] = test system: cardiac microvascular endothelial cells (CMECs); assay: PDGF-B induction (RT-PCR) after TNFα treatment of cultured CMECs; format: cell-based, F344 rats; conditions: 4-month old rat CMECs, TNFα 30 ng/ml, 3 hr
# From the text: FIG. 4. Aging-associated alterations in cardiac microvascular TNFα receptor pathways. (A) Representative immunostaining for TNF receptor 1 and 2 in the subepicardium and subendocardium of 3- and 18-month old murine hearts. (B) TNF receptor 1 and 2 densities in the subendocardium of 3- and 18-month old murine hearts (n=3, each). (C) RT-PCR for PDGF-B induction after TNFα treatment of 4- and 24-month old rat CMECs.
# The functional significance of the changes in TNF receptor in the aging cardiac microvasculature was examined in vitro. Cardiac microvascular endothelial cells (CMECS) of 4 and 24-month old F344 rats were isolated and cultured. Briefly, the hearts were removed and minced in endothelial cell medium (DMEM containing 20% FBS, 1% endothelial cell growth factor, 1% endothelial cell growth supplement, 1% BME, 10^−4% heparin and 1% penicillin [10,000 I.U./ml]/streptomycin [10,000 μg/ml]), and digested with medium containing 0.2% collagenase and 0.005% Dnase, and 5% FBS for 45 minutes with subsequent endothelial cells isolation by PECAM-mediated magnetic particle collection (Dynabeads). The resultant CMECs (Dil-LDL uptake>95%) were cultured for 2 passages and seeded into 12-well culture dish (10^5 cells/well) and grown to confluence. Medium was changed to serum free-DMEM for 1 hr and then to medium containing 2% FBS+TNFα (30 ng/ml) for 3 hr.
# [3] = test system: PDGF-B; assay: Intramyocardial injection of TNFα: PDGF-B immunostaining in hearts; format: in vivo, F344 rats; conditions: 100 ng intramyocardial, 24 h
# Description: as §1, §2
# [4] = test system: receptors in the heart vasculature; assay: Binding of homing peptides to receptors in heart vasculature versus other organs; parameters: species or system mammal; conditions: for binding to BDNF receptor(s) in the vasculature of older hearts: usually trkB, more commonly truncated trkB; for binding to receptors on other organs (than heart, or heart and brain): organ selectivity
substance,measurement,setting,value
"TNFα: tumor necrosis factor α, growth factor injected intramyocardially or added to CMECs (NPQAEGQLQV)",extent of myocardial infarction in young hearts,"[1]; 4-month old rats, 14 day post-coronary occlusion",markedly reduced
same,apoptosis in older hearts,"[1]; 24-month old rats, anterior left ventricular wall, 2 day post-coronary occlusion",extensive apoptosis; also recorded: induced apoptosis
same,mortality in older rats,"[1]; 24-month old rats, within 72 h of coronary occlusion",80%
same,PDGF-B expression in CMECs from young hearts,[2],induced
same,PDGF-B in young hearts in vivo,[3]; 4-month old rats,specifically induced increase
same,PDGF-B in aging hearts in vivo,[3]; 24-month old rats,minimal effect
GRRFIRV,binding to BDNF receptor(s) in the vasculature of older hearts,[4],bind
same,"binding to receptors on other organs (than heart, or heart and brain)",[4],do not bind significantly
ARRGQAV,binding to BDNF receptor(s) in the vasculature of older hearts,[4],bind
same,"binding to receptors on other organs (than heart, or heart and brain)",[4],do not bind significantly
QAQGQLV,"binding to receptors on other organs (than heart, or heart and brain)",[4],does not bind significantly
same,binding capacity to TNF receptor(s) in vasculature of young versus older hearts,[4]; young vs older hearts,more binding capacity

# — patent US7910694B2, “Homing peptides to receptors of heart vasculature” (Cornell Research Foundation, Inc., priority 2002, dated 2011)
